Assay: solubility in water at room temperature

For `OCc1c(F)c(F)c(CO)c(F)c1F` [2,3,5,6-tetrafluorobenzenedimethanol], the solubility in water was “about 25 g/L”.

Reference: patent US6909023B2, “Production method for benzenedimethanol compound” (Showa Denko K.K., priority 2000, dated 2005)
